From ChEMBL document CHEMBL6153102, “Rational Design, Synthesis, and Biological Evaluation of Novel c-Met Degraders for Lung Cancer Therapy” (J Med Chem, 2025)
Activity calls are given as the source filed them. The rule behind the calls is not given here.

What was measured:
[1] = target: T1, Protein cereblon/Hepatocyte growth factor receptor (Homo sapiens, UniProt P08581+Q96SW2); assay: PROTAC activity at c-Met/CRBN in human EBC-1 cells assessed as induction of c-Met degradation at 15.6 nM by Western blotting analysis; assay type: cell-based; conditions: time 72.0 hrs
Target sequence in this assay (P08581 25-1390 limits assumed): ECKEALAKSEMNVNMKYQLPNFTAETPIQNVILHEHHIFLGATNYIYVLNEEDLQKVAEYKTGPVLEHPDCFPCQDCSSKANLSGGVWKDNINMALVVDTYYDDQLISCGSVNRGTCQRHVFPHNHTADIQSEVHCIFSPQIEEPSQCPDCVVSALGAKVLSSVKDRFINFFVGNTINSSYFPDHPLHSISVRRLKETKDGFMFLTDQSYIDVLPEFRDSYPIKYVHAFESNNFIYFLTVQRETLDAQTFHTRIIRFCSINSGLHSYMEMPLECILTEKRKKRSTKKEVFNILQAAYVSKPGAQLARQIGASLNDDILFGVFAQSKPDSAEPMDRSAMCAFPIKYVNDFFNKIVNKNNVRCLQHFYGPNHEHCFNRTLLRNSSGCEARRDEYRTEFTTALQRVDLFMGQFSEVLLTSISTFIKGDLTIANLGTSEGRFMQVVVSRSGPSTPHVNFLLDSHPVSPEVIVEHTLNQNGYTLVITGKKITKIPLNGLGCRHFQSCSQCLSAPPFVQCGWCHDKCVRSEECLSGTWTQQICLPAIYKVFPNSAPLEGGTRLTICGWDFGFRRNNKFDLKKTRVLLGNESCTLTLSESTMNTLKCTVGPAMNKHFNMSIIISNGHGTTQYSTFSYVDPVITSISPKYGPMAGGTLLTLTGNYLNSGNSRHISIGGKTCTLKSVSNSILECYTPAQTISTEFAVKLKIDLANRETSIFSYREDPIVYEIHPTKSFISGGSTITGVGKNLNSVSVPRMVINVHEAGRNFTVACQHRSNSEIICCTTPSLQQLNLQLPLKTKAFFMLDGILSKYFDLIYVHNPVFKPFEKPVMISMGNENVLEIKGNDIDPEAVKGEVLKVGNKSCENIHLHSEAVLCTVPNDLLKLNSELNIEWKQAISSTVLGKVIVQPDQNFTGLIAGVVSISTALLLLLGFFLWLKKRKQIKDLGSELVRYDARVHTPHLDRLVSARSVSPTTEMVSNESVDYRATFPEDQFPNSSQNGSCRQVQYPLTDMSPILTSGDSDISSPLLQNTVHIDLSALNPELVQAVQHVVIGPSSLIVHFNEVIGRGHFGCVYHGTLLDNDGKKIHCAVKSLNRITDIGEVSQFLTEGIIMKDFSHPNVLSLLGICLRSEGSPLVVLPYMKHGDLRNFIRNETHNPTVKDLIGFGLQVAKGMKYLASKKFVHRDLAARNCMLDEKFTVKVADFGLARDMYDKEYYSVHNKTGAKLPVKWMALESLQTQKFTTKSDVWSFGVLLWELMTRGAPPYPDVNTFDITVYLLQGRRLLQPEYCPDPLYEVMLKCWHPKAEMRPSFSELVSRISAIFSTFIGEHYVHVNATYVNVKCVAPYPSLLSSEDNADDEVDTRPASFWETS
Target sequence in this assay (Q96SW2 whole entry partner): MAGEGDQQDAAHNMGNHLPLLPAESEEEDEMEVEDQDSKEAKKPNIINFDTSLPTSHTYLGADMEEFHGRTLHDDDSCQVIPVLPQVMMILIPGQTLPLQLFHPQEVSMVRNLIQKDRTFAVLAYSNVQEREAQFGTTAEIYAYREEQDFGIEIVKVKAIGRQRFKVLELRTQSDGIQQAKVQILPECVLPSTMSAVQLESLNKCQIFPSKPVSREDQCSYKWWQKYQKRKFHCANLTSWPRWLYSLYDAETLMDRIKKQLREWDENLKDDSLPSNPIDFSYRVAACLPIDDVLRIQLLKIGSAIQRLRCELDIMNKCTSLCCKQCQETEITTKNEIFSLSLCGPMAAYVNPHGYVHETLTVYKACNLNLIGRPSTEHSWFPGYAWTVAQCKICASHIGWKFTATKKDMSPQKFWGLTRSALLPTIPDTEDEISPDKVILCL

EBC-1 [2] = assay: Induction of apoptosis in human EBC-1 cells assessed as early apoptotic cells at 5 nM incubated for 24 hrs by Annexin V/FITC staining based flow cytometry analysis (reference value: 2.11 %); assay type: functional
[3] = target: T1, Protein cereblon/Hepatocyte growth factor receptor; assay: PROTAC activity at c-Met/CRBN in human EBC-1 cells assessed as reduction in TPX2 level at 15.6 nM incubated for 24 hrs by proteomics analysis; assay type: cell-based
Target sequence in this assay (P08581 25-1390 limits assumed): as the sequence (P08581 25-1390 limits assumed) above
Target sequence in this assay (Q96SW2 whole entry partner): as the sequence (Q96SW2 whole entry partner) above

[4] = Apparent volume of distribution in Sprague-Dawley rat at 2 mg/kg, iv measured upto 24 hrs by LC-MS/MS analysis; assay type: ADME, organism-based; conditions: in vivo
[5] = target: T1, Protein cereblon/Hepatocyte growth factor receptor; assay: PROTAC activity at c-Met/CRBN in human EBC-1 cells assessed as reduction in c-Met level at 3.9 to 125 nM incubated for 24 hrs in presence of MG132 by Western blot analysis; assay type: cell-based; conditions: dose 3.9-125 nM
Target sequence in this assay (P08581 25-1390 limits assumed): as the sequence (P08581 25-1390 limits assumed) above
Target sequence in this assay (Q96SW2 whole entry partner): as the sequence (Q96SW2 whole entry partner) above

EBC-1 [6] = assay: Induction of apoptosis in human EBC-1 cells assessed as viable cells at 5 nM incubated for 24 hrs by Annexin V/FITC staining based flow cytometry analysis (reference value: 95.9%); assay type: functional; conditions: read-out: Activity
[7] = target: T1, Protein cereblon/Hepatocyte growth factor receptor; assay: PROTAC activity at c-Met/CRBN in human A549 cells assessed as induction of c-Met degradation incubated for 24 hrs by Western blotting analysis; assay type: cell-based
Target sequence in this assay (P08581 whole entry): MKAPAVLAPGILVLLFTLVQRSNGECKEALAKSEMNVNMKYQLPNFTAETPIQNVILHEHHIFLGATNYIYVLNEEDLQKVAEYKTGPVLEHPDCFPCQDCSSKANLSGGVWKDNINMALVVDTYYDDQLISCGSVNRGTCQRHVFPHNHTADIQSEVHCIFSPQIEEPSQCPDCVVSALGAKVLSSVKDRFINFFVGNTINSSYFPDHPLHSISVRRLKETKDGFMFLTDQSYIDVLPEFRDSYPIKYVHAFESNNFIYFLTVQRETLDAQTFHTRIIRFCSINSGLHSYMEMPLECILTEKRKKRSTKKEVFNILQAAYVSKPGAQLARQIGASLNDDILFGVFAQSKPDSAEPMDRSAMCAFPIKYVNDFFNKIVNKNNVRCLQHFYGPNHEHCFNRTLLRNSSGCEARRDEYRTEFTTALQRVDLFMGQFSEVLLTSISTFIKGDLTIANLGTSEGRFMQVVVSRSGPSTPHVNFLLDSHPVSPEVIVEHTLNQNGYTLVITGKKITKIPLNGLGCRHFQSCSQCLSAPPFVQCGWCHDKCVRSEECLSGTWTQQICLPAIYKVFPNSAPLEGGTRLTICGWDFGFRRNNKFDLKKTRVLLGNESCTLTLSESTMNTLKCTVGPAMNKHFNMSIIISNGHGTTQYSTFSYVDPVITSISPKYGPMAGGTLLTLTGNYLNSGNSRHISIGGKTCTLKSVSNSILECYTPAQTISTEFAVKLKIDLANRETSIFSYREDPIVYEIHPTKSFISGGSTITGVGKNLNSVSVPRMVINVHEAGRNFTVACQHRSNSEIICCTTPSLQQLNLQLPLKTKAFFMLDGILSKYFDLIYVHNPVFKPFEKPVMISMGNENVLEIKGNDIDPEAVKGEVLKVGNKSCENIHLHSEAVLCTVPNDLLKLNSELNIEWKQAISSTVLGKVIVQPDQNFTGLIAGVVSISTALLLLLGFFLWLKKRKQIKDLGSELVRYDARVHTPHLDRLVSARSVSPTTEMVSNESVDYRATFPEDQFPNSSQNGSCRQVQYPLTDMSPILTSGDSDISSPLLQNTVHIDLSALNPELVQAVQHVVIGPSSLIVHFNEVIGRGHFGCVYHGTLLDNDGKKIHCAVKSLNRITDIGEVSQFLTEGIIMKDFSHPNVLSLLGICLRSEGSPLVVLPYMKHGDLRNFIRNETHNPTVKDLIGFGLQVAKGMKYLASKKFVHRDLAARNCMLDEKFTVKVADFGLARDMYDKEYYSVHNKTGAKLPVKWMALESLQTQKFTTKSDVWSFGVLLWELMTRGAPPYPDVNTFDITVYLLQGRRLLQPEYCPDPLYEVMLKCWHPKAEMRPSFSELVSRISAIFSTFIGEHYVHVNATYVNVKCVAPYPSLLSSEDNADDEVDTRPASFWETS
Target sequence in this assay (Q96SW2 whole entry): as the sequence (Q96SW2 whole entry partner) above

HCT-116 = assay: Antiproliferative activity against human HCT-116 cells assessed as cell viability incubated for 72 hrs by MTT assay; assay type: functional, cell-based; conditions: HCT-116, 72 h
[8] = target: T1, Protein cereblon/Hepatocyte growth factor receptor; assay: PROTAC activity at c-Met/CRBN in human HCT-116 cells assessed as induction of c-Met degradation at 15.6 nM by Western blotting analysis; assay type: cell-based; conditions: time 72.0 hrs
Target sequence in this assay (P08581 25-1390 limits assumed): as the sequence (P08581 25-1390 limits assumed) above
Target sequence in this assay (Q96SW2 whole entry partner): as the sequence (Q96SW2 whole entry partner) above

[9] = target: T1, Protein cereblon/Hepatocyte growth factor receptor; assay: PROTAC activity at c-Met/CRBN in human A549 cells assessed as induction of c-Met degradation at 15.6 nM by Western blotting analysis; assay type: cell-based; conditions: time 72.0 hrs
Target sequence in this assay (P08581 25-1390 limits assumed): as the sequence (P08581 25-1390 limits assumed) above
Target sequence in this assay (Q96SW2 whole entry partner): as the sequence (Q96SW2 whole entry partner) above

EBC-1 [10] = assay: PROTAC activity at c-Met […] mutant /CRBN in human EBC-1 cells assessed as induction of c-Met degradation incubated for 24 hrs by Western blotting analysis; assay type: cell-based; conditions: dose <= 1000.0 nM
EBC-1 [11] = assay: Induction of apoptosis in human EBC-1 cells assessed as necrotic cells at 50 nM incubated for 24 hrs by Annexin V/FITC staining based flow cytometry analysis (reference value: 0.35 %); assay type: functional
[12] = target: T1, Protein cereblon/Hepatocyte growth factor receptor; assay: PROTAC activity at c-Met/CRBN in human HCT-116 cells assessed as induction of c-Met degradation at 100 nM incubated for 24 hrs by Western blotting analysis relative to control; assay type: cell-based
Target sequence in this assay (P08581 25-1390 limits assumed): as the sequence (P08581 25-1390 limits assumed) above
Target sequence in this assay (Q96SW2 whole entry partner): as the sequence (Q96SW2 whole entry partner) above

EBC-1 [13] = assay: Induction of apoptosis in human EBC-1 cells assessed as necrotic cells at 15 nM incubated for 24 hrs by Annexin V/FITC staining based flow cytometry analysis (reference value: 0.35 %); assay type: functional
[14] = Cmax in Sprague-Dawley rat at 2 mg/kg, iv measured upto 24 hrs by LC-MS/MS analysis; assay type: ADME, organism-based; conditions: in vivo
[15] = Stability in human whole blood assessed as half life; assay type: ADME, tissue-based
[16] = Toxicity in BALB/c nude mouse assessed as kidney damage at 10 to 20 mg/kg, ip administered for 7 days by H and E staining based analysis; assay type: organism-based; conditions: in vivo, 168 h, dose 10-20 mg/kg, time 7 day
[17] = Toxicity in BALB/c nude mouse assessed as body weight loss at 10 to 20 mg/kg, ip administered for 7 days; assay type: organism-based; conditions: in vivo, 168 h, dose 10-20 mg/kg, time 7 day
[18] = target: T1, Protein cereblon/Hepatocyte growth factor receptor; assay: PROTAC activity at c-Met/CRBN in human EBC-1 cells assessed as reduction in c-Met mRNA level at 3.9 to 125 nM incubated for 24 hrs by qPCR analysis; assay type: cell-based; conditions: dose 3.9-125 nM
[19] = target: T1, Protein cereblon/Hepatocyte growth factor receptor; assay: PROTAC activity at c-Met/CRBN in human EBC-1 cells assessed as reduction in c-Met level at 3.9 to 125 nM incubated for 24 hrs in presence of lenalidomide by Western blot analysis; assay type: cell-based; conditions: dose 3.9-125 nM
[20] = target: T1, Protein cereblon/Hepatocyte growth factor receptor; assay: PROTAC activity at c-Met/CRBN in human EBC-1 cells assessed as effect on IKZF2 level at 15.6 nM incubated for 24 hrs by proteomics analysis; assay type: cell-based
[21] = target: T1, Protein cereblon/Hepatocyte growth factor receptor; assay: PROTAC activity at c-Met/CRBN in human EBC-1 cells assessed as induction of c-Met degradation incubated for 24 hrs by Western blotting analysis; assay type: cell-based
[22] = target: T1, Protein cereblon/Hepatocyte growth factor receptor; assay: PROTAC activity at c-Met/CRBN in human EBC-1 cells assessed as reduction in AKR1C2 level at 15.6 nM incubated for 24 hrs by proteomics analysis; assay type: cell-based
[23] = target: T1, Protein cereblon/Hepatocyte growth factor receptor; assay: PROTAC activity at c-Met/CRBN in human EBC-1 cells assessed as reduction in TFPI2 level at 15.6 nM incubated for 24 hrs by proteomics analysis; assay type: cell-based
[24] = target: T1, Protein cereblon/Hepatocyte growth factor receptor; assay: PROTAC activity at c-Met/CRBN in human EBC-1 cells assessed as reduction in c-Met level at 15.6 nM incubated for 24 hrs by proteomics analysis; assay type: cell-based
[25] = AUC (0 to infinity) in Sprague-Dawley rat at 2 mg/kg, iv measured upto 24 hrs by LC-MS/MS analysis; assay type: ADME, organism-based; conditions: in vivo
[26] = Half life in Sprague-Dawley rat at 5 mg/kg, ip measured upto 24 hrs by LC-MS/MS analysis; assay type: ADME, organism-based; conditions: in vivo
EBC-1 [27] = assay: Induction of apoptosis in human EBC-1 cells assessed as viable cells at 50 nM incubated for 24 hrs by Annexin V/FITC staining based flow cytometry analysis (reference value: 95.9%); assay type: functional; conditions: read-out: Activity
EBC-1 [28] = assay: Induction of apoptosis in human EBC-1 cells assessed as necrotic cells at 5 nM incubated for 24 hrs by Annexin V/FITC staining based flow cytometry analysis (reference value: 0.35 %); assay type: functional
[29] = Cmax in Sprague-Dawley rat at 5 mg/kg, ip measured upto 24 hrs by LC-MS/MS analysis; assay type: ADME, organism-based; conditions: in vivo
[30] = target: T1, Protein cereblon/Hepatocyte growth factor receptor; assay: PROTAC activity at c-Met/CRBN in human EBC-1 cells assessed as reduction in UHRF1 level at 15.6 nM incubated for 24 hrs by proteomics analysis; assay type: cell-based
[31] = Metabolic stability in human liver microsome assessed as clearance; assay type: ADME; conditions: liver microsomes, read-out: CLH
MKN-45 = assay: Antiproliferative activity against human MKN-45 cells assessed as cell viability incubated for 72 hrs by MTT assay; assay type: functional, cell-based; conditions: MKN-45, 72 h
[32] = Half life in Sprague-Dawley rat at 2 mg/kg, iv measured upto 24 hrs by LC-MS/MS analysis; assay type: ADME, organism-based; conditions: in vivo
[33] = Bioavailability in Sprague-Dawley rat at 5 mg/kg, ip measured upto 24 hrs by LC-MS/MS analysis; assay type: ADME, organism-based; conditions: in vivo
[34] = target: T1, Protein cereblon/Hepatocyte growth factor receptor; assay: PROTAC activity at c-Met/CRBN in human A549 cells assessed as reduction in c-Met level incubated for 24 hrs by Western blotting analysis; assay type: cell-based
Target sequence in this assay (P08581 whole entry): as the sequence (P08581 whole entry) above
Target sequence in this assay (Q96SW2 whole entry): as the sequence (Q96SW2 whole entry partner) above

[35] = target: T1, Protein cereblon/Hepatocyte growth factor receptor; assay: PROTAC activity at c-Met/CRBN in human HCT-116 cells assessed as induction of c-Met degradation incubated for 24 hrs by Western blotting analysis; assay type: cell-based
Target sequence in this assay (P08581 whole entry): as the sequence (P08581 whole entry) above
Target sequence in this assay (Q96SW2 whole entry): as the sequence (Q96SW2 whole entry partner) above

## COc1ccc(C(=O)N2CCC3(CCN(C(=O)CN4CCC(COc5cnc(-c6cccc(Cn7nc(-c8cccc(C#N)c8)ccc7=O)c6)nc5)CC4)CC3)CC2)cc1N1CCC(=O)NC1=O
[1]
  Activity: Time-dependent-effect
EBC-1 [2]
  Activity: 29.7%
[3]
  Activity: Active
[4]
  Vz: 13.13 L/kg
[5]
  Activity: Active
EBC-1 [6]
  viability at 0.005 µM: 66.4%
[7]
  DC50: < 15.6 nM
HCT-116
  IC50: 6190 nM
[8]
  Activity: Time-dependent-effect
[9]
  Activity: Time-dependent-effect
EBC-1 [10]
  Activity: Dose-dependent-effect
EBC-1 [11]
  Activity: 0.6%
[12]
  Activity: inactive
EBC-1 [13]
  Activity: 0.58%
[14]
  Cmax: 2380 ng/mL
[15]
  half-life: > 2 h
[16]
  Activity: Non-toxic
[17]
  Activity: Non-toxic
[18]
  Activity: Active
[19]
  Activity: Active
[20]
  Activity: No effect
[21]
  DC50: 0.59 nM
[21]; dose 0.03 nM
  Activity: Dose-dependent-effect
[22]
  Activity: Active
[23]
  Activity: Active
[24]
  Activity: Active
[25]
  AUC(0-inf): 551 ng·h/mL
[26]
  half-life: 5.49 h
EBC-1 [27]
  viability at 0.05 µM: 62%
EBC-1 [28]
  Activity: 0.42%
[29]
  Cmax: 104 ng/mL
[30]
  Activity: Active
[31]
  CLint scaled: 57.6 mL/min/kg
MKN-45
  IC50: 10 nM
[32]
  t1/2: 6.9 h
[33]
  bioavailability: 49.2%
[34]
  DC50: 41.8 nM
[35]
  DC50: < 15.6 nM
